The text below walks through data of US12091431B2, “Crystals” (AEROMICS, INC., priority 2016, dated 2024).

Molecules are shown by their SMILES. Values after ≈ are worked out from the molar mass of the structure shown. Like-named read-outs stand apart in the source and are kept apart here.

Common to all, as to format: physicochemical
The nature of data set [1]: Vacuum drying attempts of Form A. As for the experimental part: Several attempts to dry Form A are tried. Rigorous conditions are initially selected due to the high temperature range at which the TGA weight loss is observed (above 90° C.). Drying under vacuum at 80° C. for 1 day results in brown solids stuck to the vial.
A drying attempt under milder conditions is attempted. The experiment begins by drying under vacuum at ambient temperature. […] Minor weight loss is noted after 6 hours at 63-65° C., so the sample is held in the vacuum oven at this temperature for 1 day, resulting in 11% gravimetric weight loss.

Data set [2] can be described thus: Stressing at elevated relative humidity. Conditions: ~97% RH for 7 days. As for the experimental part:
The kinetic and thermodynamic hygroscopicity of Form A is assessed by DVS and stressing at elevated RH, respectively.

Data set [3] is described as follows: Dynamic vapor sorption (DVS). Conditions: for XRPD of the post-DVS material (form change): after DVS sorption/desorption cycle; for hygroscopicity, weight gain from 5-95% RH: summary statement; for weight change upon desorption: DVS desorption after sorption to 95% RH. As for the experimental part:
Dynamic vapor sorption (DVS) data are collected on a VTI SGA-100 Vapor Sorption Analyzer. NaCl and PVP are used as calibration standards. Samples are not dried prior to analysis. Sorption and desorption data are collected over a range from 5% to 95% relative humidity (RH) at 10% RH increments under a nitrogen purge. The equilibrium criterion used for analysis is less than 0.0100% weight change in 5 minutes with a maximum equilibration time of 3 hours. Data are not corrected for the initial moisture content of the samples.

Data set [4] is described as follows: Slurry in water at room temperature, form by XRPD. Here is the method: The slurry is repeated for 19 hours to gauge how quickly the conversion occurs and results again in Form N, indicating form conversion within 19 hours (starting material is the product from this example and from Example 21).
The nature of the next data set: Solubility in water.
Data set [5] can be described thus: Hydrolysis in the solid state. Conditions: reversion to N-[3,5-bis(trifluoromethyl)phenyl]-5-chloro-2-hydroxybenzamide.

In the case of `O=C(Nc1cc(C(F)(F)F)cc(C(F)(F)F)c1)c1cc(Cl)ccc1OP(=O)(O)O` [Form A, 2-{[3,5-bis(trifluoromethyl)phenyl]carbamoyl}-4-chlorophenyl dihydrogen phosphate ethyl acetate solvate], the “gravimetric weight loss on drying” value worked out at 30% in data set [1] (under vacuum at 80° C. for 1 day) and 11% in data set [1] (vacuum oven at 63-65° C. for 1 day). In addition, the “outcome of vacuum drying at elevated temperature” value in data set [1] (vacuum, elevated temperature) is “decomposition and collapse of the crystalline structure”. Besides, the “form after stressing at elevated relative humidity” value in data set [2] is recorded as “form change to a mixture of materials with a minor Form N (hydrate) component”. For the same molecule, the “weight loss upon desorption between 95% and 5% RH” value in data set [3] (DVS desorption, 95% to 5% RH) was found to be 8.73%. The “moisture uptake between 5% and 95% RH” value in data set [3] (DVS sorption, 5% to 95% RH) is 6.07 wt %. In addition, the “weight gain 5%-75% RH” value in data set [3] (DVS sorption, 5%-75% RH) came to 1.65%. Besides, in data set [3] (DVS sorption, 75%-95% RH), the “weight gain 75%-95% RH” value is listed as 4.42%. Moreover, the “weight loss upon equilibration at 5% RH” value in data set [3] (DVS, initial equilibration at 5% RH) stood at 0.76 wt %. The “XRPD of the post-DVS material (form change)” value (from here on “XRPD … (form change)”) in data set [3] is on record as “change to a disordered unknown material”. For the same molecule, the “hygroscopicity, weight gain from 5-95% RH” value in data set [3] (DVS) was approximately 6%.
In the case of `O=C(Nc1cc(C(F)(F)F)cc(C(F)(F)F)c1)c1cc(Cl)ccc1OP(=O)(O)O` [Form B, 2-{[3,5-bis(trifluoromethyl)phenyl]carbamoyl}-4-chlorophenyl dihydrogen phosphate], the “time for form conversion to Form N in water slurry” value in data set [4] is not above 19 h. The “form after slurrying with water” value in data set [4] (7 days, vacuum filtered) is on record as “converts to Form N”. In addition, in data set [2], the “form after stressing at elevated relative humidity” value is reported as “partial conversion to Form N”. Moreover, in data set [3], the “weight change upon desorption” value was “All of this weight is lost” and the “XRPD … (form change)” value was “no form change”. In data set [3] (DVS sorption, 5% to 95% RH), the “weight gain upon sorption from 5% to 95% relative humidity” value worked out at 0.6 weight %. Further, in data set [3] (DVS, 5% RH), the “weight loss at 5% relative humidity” value came out at 0.04 weight %. Further, the “hygroscopicity, weight gain from 5-95% RH” value in data set [3] (DVS) is recorded as approximately 0.6%.
Consider `O=C(Nc1cc(C(F)(F)F)cc(C(F)(F)F)c1)c1cc(Cl)ccc1OP(=O)(O)O` [Form N, 2-{[3,5-bis(trifluoromethyl)phenyl]carbamoyl}-4-chlorophenyl dihydrogen phosphate hydrate], for which, in data set [3], the “weight change upon desorption” value is listed as “All of this weight is lost”. In addition, the “weight gain upon sorption from 5% to 95% relative humidity” value in data set [3] (DVS sorption, 5% to 95% RH, phosphate hydrate) worked out at 3 weight %. The “weight loss upon equilibration to 5% relative humidity” value in data set [3] (DVS, initial equilibration to 5% RH, residual water likely) is reported as 30%. In data set [3] (phosphate hydrate), the “XRPD … (form change)” value is recorded as “no form change”. Further, in data set [3] (DVS, phosphate hydrate), the “hygroscopicity, weight gain from 5-95% RH” value is on record as approximately 3%.
As usually defined, the solubility is the concentration that dissolves in the medium under given conditions. In the case of `O=C(Nc1cc(C(F)(F)F)cc(C(F)(F)F)c1)c1cc(Cl)ccc1O` [N-[3,5-bis(trifluoromethyl)phenyl]-5-chloro-2-hydroxybenzamide], the solubility in the data set “Solubility in water” (water, read-out: solubility in water) came out at 0.003 mg/mL (≈ 7.82 µM).
Take `NCCO.NCCO.O=C(Nc1cc(C(F)(F)F)cc(C(F)(F)F)c1)c1cc(Cl)ccc1OP(=O)(O)O` [bis ethanolamine salt, 2-((3,5-bis(trifluoromethyl)phenyl)carbamoyl)-4-chlorophenyl phosphate bis ethanolamine salt]: in data set [5], the “hydrolysis in the solid state” value is 1 % per day.
As for `O=C(Nc1cc(C(F)(F)F)cc(C(F)(F)F)c1)c1cc(Cl)ccc1OP(=O)([O-])[O-].[Na+].[Na+]` [bis sodium salt, 2-((3,5-bis(trifluoromethyl)phenyl)carbamoyl)-4-chlorophenyl phosphate bis sodium salt], the solubility in the data set “Solubility in water” (pH 8.5 water, pH 8.5, aqueous buffer, read-out: solubility in pH 8.5 water) is 20 mg/mL. The “hydrolysis in the solid state” value in data set [5] came out at 1 % per day.
Take `O=C(Nc1cc(C(F)(F)F)cc(C(F)(F)F)c1)c1cc(Cl)ccc1OP(=O)([O-])O.[Na+]` [mono sodium salt, 2-((3,5-bis(trifluoromethyl)phenyl)carbamoyl)-4-chlorophenyl hydrogen phosphate mono sodium salt]: the “hydrolysis in the solid state” value in data set [5] is recorded as 1 % per day.
